Data on three molecules can be found in patent publication US10370405B2, “C-3 novel triterpenone with C-28 amide derivatives as HIV inhibitors” (HETERO LABS LIMITED, priority 2016, dated 2019).

Series [1] concerns HIV-1 strain 92HT599. As to the kind of experiment: Antiviral activity: p24 estimation in MT2 cells infected with HIV-1. Type of series: cell-based. The settings on record: for IC50: Human immunodeficiency virus 1, MT2; for inhibition at 0.01 µM / inhibition at 0.1 µM / inhibition at 1 µM: Human immunodeficiency virus 1, MT2 cells, HIV-1 92HT599, p24, ~96 hours. Here is the method: MT2 cells were infected with HIV-1 strain 92HT599 (10 TCID 50/30000 cells). The infected cells were plated at the concentration of ˜30 000 cells per well in 96 well plate. Test compound was added to the micro plate in defined format with the final concentration of DMSO (vehicle) is not more than 1%. Incubation was carried out in CO2 incubator for ˜96 hours for viral infection. At the end of incubation period an aliquot from each well was taken for p24 estimation. The quantitation of p24 is an index for antiviral activity of the compound. Percent inhibition was calculated with reference to control values (vehicle controls). P-24 estimation was carried out using Advance biosciences kit as per the procedure detailed by supplier.

The nature of series [2]: Single dose oral pharmacokinetic study. The settings on record: mouse, plasma; Mice oral PK @30 mg/kg. Type of series: in vivo. Here is the method:
The test item was administered through oral route to animals (rat/mice) at 30 mg/kg dose in a suitable vehicle (10% Solutol+20% PEG) at 10 ml/kg dose volume. Blood samples (˜50 μL at each time point) were collected from retro-orbital plexus using K3 EDTA as anticoagulant in eppendorf tubes at defined time intervals 30 minutes, 1 hour, 2 hour, 4 hour, 8 hour, 24 hour & 48 hour under light ether anaesthesia. The samples were centrifuged at 3500×g to separate plasma and stored at −80° C. until analysis. Plasma […] for Mice were processed as per described in sample preparation.
Standard solutions of the test compound 1 mg/mL solutions were prepared in DMSO and further dilutions were made in methanol. The calibration curve samples for LCMSMS analysis were prepared by spiking 25 μl of Mice plasma with 2.5 μl and of the appropriate working standard solution to obtain final concentrations 0.078, 0.156, 0.312, 0.625, 1.25, 2.5, 5, 10, 20 & 40 µg/ml. To the test compound plasma extraction was carried out using Acetonitrile precipitation. After reconstitution with solvent (50% Acetonitrile in Buffer) samples were analyzed by LCMSMS to get the concentrations to calculate PK Parameters.

Series [3] is described as follows: in vitro.
Protocol: On day 1 calculate the number of cells required for the assay and seed 3×10^4 cells in 200 μl per well. Weigh the compound and dissolve it in DMSO to get 10 mM stock which is further diluted to 3 mM and 1 mM. The drugs from these stocks were added to plate to get final concentration of 100 μM, 30 μM and 10 μM. […] Incubate for 4 days in 5% CO2 incubator at 37° C. On day 4, 100 μl of medium was removed from each well without disturbing the cells. Add 10 μl of MTT reagent and incubate for 4 hours at 5% CO2 incubator at 37° C. for formation of crystals. Add 200 μl of 0.1N acidic isopropanol to dissolve the crystals and read the plate at 590 nm.
The mark [4] stands for this setting: 0% serum, read-out: Antiviral activity IC50 (nM) 0%.
[5] abbreviates: read-out: Antiviral activity IC50 (nM) 40% serum.

Where two headings read alike, the source gives them in different places.

As a reminder, the IC50 is the point on the concentration scale where inhibition reaches its midpoint. What is called inhibition is the change of the read-out against control, counted positive when it falls. Broadly, the AUC(0-t) is exposure summed from dosing to a finite time, without extrapolation to infinity. Low values mean low exposure, high ones high exposure. As a reminder, the Cmax is the peak of the concentration-time curve. What is called viability is a per cent measure of how many cells are alive, often set against a control. On to `CC(C)C1=C2[C@H]3CC[C@@H]4[C@@]5(C)CC[C@H](OC(=O)[C@H]6C[C@@H](C(=O)O)C6(C)C)C(C)(C)[C@@H]5CC[C@@]4(C)[C@]3(C)CC[C@@]2(C(=O)NC(C)(C)c2ncc(-c3ccc(Cl)cc3)[nH]2)CC1=O` [Example 11, (1R,3S)-3-((((3aR,5aR,5bR,7aR,9S,11aR,11bR,13aS)-3a-((2-(5-(4-chlorophenyl)-1H-imidazol-2-yl)propan-2-yl)carbamoyl)-1-isopropyl-5a,5b,8,8,11a-pentamethyl-2-oxo-3,3a,4,5,5a,5b,6,7,7a,8,9,10,11,11a,11b,12,13,13a-octadecahydro-2H-cyclopenta[a]chrysen-9-yl)oxy)carbonyl)-2,2-dimethylcyclobutane-1-carboxylic acid], for which, in series [1] (setting [4]), the 50% inhibitory concentration (IC50) was 2.93 nM. Moreover, in series [1] (setting [5]), the IC50 is 118 nM. Besides, in series [1], the inhibition at 0.01 µM is 92%, the inhibition at 0.1 µM was 99% and the inhibition at 1 µM was 99%. In series [2], this molecule came in with an AUC(0-t) of 143 µg·h/mL and a Cmax of 10000 ng/mL. Besides, in series [3], the viability at 4 days, 10 μM turned out to be 48%; the viability at 4 days, 30 μM came to 3%; the viability at 4 days, 100 μM came to 4%.

Consider `CC(C)C1=C2[C@H]3CC[C@@H]4[C@@]5(C)CC[C@H](OC(=O)[C@H]6C[C@@H](C(=O)O)C6(C)C)C(C)(C)[C@@H]5CC[C@@]4(C)[C@]3(C)CC[C@@]2(C(=O)N2CCC[C@H]2C(C)(C)O)CC1=O` [Example 9, (1R,3S)-3-((((3aR,5aR,5bR,7aR,9S,11aR,11bR,13aS)-3a-((S)-2-(2-hydroxypropan-2-yl)pyrrolidine-1-carbonyl)-1-isopropyl-5a,5b,8,8,11a-pentamethyl-2-oxo-3,3a,4,5,5a,5b,6,7,7a,8,9,10,11,11a,11b,12,13,13a-octadecahydro-2H-cyclopenta[a]chrysen-9-yl)oxy)carbonyl)-2,2-dimethylcyclobutane-1-carboxylic acid], for which, in series [1] (setting [4]), the IC50 is 7.44 nM. Besides, the concentration for half-maximal inhibition (IC50) in series [1] (setting [5]) is 342 nM. In series [1], the inhibition at 0.01 µM is 100%, the inhibition at 0.1 µM was 100% and the inhibition at 1 µM was 100%. In series [2], this molecule came in with an AUC(0-t) of 107 µg·h/mL and a maximum concentration (Cmax) of 10900 ng/mL. Besides, in series [3], the viability at 4 days, 10 μM was 40%; the viability at 4 days, 30 μM came out at 9%; the viability at 4 days, 100 μM was determined as 8%.

Consider `CC(C)C1=C2[C@H]3CC[C@@H]4[C@@]5(C)CC[C@H](OC(=O)[C@H]6C[C@@H](C(=O)O)C6(C)C)C(C)(C)[C@@H]5CC[C@@]4(C)[C@]3(C)CC[C@@]2(C(=O)NC(C)(C)c2ncc(-c3ccccc3)[nH]2)CC1=O` [Example 8, (1R,3S)-3-((((3aR,5aR,5bR,7aR,9S,11aR,11bR,13aS)-1-isopropyl-5a,5b,8,8,11a-pentamethyl-2-oxo-3a-((2-(5-phenyl-1H-imidazol-2-yl)propan-2-yl)carbamoyl)-3,3a,4,5,5a,5b,6,7,7a,8,9,10,11,11a,11b,12,13,13a-octadecahydro-2H-cyclopenta[a]chrysen-9-yl)oxy)carbonyl)-2,2-dimethylcyclobutane-1-carboxylic acid], for which the half-inhibitory concentration (IC50) in series [1] (setting [4]) is 3.7 nM. Moreover, the IC50 in series [1] (setting [5]) was 14.2 nM. In series [1], the inhibition at 0.01 µM was 100%, the inhibition at 0.1 µM was 100% and the inhibition at 1 µM is 100%. In series [2], this molecule returned an exposure AUC(0-t) of 265 µg·h/mL and a Cmax of 15200 ng/mL. In series [3], this molecule had a viability at 4 days, 10 μM of 29%; a viability at 4 days, 30 μM of 5%; a viability at 4 days, 100 μM of 2%.
